Measured values as given in paper PMC10176470, “Engaging a Non-catalytic Cysteine Residue Drives Potent and Selective Inhibition of Caspase-6” (Journal of the American Chemical Society, 2023).

Key:
Assay in all cases: SILAC proteomics / in-gel fluorescence, competition of probe 13-t labeling by 3a
[1] = target: T1, proteins of HEK293T cells transiently overexpressing caspase-6 (Homo sapiens, UniProt P62258); conditions: Comp; protein YWHAE P62258
T1 sequence (P62258 1-255): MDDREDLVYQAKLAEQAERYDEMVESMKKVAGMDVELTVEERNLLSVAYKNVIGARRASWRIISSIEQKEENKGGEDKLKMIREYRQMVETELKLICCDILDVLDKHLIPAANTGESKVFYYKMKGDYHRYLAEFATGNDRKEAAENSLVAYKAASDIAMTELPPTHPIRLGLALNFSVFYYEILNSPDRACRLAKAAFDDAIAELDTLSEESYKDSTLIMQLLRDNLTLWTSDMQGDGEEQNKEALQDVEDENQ

[2] = target: proteins of HEK293T cells transiently overexpressing caspase-6 (Homo sapiens, UniProt P35606); conditions: Comp; protein COPB2 P35606
[3] = target: proteins of HEK293T cells transiently overexpressing caspase-6 (Homo sapiens, UniProt P62280); conditions: Comp; protein RPS11 P62280
[4] = target: T2, proteins of HEK293T cells transiently overexpressing caspase-6 (Homo sapiens, UniProt Q99832); conditions: Comp; protein CCT7 Q99832
T2 sequence (Q99832 1-543): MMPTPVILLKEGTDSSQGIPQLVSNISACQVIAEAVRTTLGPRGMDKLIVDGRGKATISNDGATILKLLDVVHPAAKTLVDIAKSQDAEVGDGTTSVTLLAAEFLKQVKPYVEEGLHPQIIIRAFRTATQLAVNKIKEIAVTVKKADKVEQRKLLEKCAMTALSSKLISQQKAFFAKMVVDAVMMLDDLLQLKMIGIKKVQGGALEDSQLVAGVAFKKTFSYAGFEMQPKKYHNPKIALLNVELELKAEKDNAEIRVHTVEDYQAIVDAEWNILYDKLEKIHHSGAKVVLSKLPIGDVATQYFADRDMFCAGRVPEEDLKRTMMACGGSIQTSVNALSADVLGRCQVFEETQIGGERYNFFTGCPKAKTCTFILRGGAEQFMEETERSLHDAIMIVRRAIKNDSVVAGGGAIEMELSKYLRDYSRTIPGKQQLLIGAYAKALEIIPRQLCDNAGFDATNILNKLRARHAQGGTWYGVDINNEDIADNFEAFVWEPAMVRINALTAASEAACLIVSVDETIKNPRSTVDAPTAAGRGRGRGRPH

[5] = target: proteins of HEK293T cells transiently overexpressing caspase-6 (Homo sapiens, UniProt P40939); conditions: Comp; protein HADHA P40939
Sequence of proteins of HEK293T cells transiently overexpressing caspase-6 (Homo sapiens, UniProt P40939) (P40939 37-763): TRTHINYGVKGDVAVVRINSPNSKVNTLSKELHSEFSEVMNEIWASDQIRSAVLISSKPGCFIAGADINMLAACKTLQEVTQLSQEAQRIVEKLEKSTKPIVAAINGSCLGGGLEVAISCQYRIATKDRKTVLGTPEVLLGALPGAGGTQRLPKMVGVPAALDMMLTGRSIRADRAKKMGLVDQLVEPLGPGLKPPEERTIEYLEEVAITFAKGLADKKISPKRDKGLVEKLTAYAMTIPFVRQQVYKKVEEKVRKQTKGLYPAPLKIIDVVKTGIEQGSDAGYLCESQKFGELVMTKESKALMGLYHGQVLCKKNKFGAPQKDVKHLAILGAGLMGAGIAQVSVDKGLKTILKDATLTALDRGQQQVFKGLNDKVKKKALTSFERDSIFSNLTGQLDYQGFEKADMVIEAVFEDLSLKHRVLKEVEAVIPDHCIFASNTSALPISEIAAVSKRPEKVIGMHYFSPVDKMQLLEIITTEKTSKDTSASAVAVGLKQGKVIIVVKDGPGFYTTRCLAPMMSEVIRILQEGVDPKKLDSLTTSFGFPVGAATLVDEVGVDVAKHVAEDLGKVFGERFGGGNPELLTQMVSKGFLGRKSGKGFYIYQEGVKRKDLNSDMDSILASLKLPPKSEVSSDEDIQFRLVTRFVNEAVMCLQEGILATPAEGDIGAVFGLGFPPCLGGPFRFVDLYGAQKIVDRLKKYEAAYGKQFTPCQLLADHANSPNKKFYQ

[6] = target: T3, proteins of HEK293T cells transiently overexpressing caspase-6 (Homo sapiens, UniProt O43175); conditions: Comp; protein PHGDH O43175
T3 sequence (O43175 1-533): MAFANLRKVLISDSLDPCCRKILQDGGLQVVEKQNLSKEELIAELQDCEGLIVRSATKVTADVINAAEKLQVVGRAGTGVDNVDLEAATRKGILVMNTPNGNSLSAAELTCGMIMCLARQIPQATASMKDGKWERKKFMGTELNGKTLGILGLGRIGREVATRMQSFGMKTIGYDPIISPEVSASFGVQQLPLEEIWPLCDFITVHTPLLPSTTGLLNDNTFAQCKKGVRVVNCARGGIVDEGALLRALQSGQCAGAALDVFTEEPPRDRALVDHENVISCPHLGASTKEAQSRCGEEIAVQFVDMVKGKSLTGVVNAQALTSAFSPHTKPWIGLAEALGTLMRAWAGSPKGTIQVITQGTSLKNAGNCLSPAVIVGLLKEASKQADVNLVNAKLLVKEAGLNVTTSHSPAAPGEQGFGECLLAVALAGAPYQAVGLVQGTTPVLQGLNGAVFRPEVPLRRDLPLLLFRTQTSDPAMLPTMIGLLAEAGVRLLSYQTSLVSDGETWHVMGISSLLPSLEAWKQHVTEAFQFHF

[7] = target: proteins of HEK293T cells transiently overexpressing caspase-6 (Homo sapiens, UniProt P09874); conditions: Comp; protein PARP1 P09874
Sequence of proteins of HEK293T cells transiently overexpressing caspase-6 (Homo sapiens, UniProt P09874) (P09874 whole entry): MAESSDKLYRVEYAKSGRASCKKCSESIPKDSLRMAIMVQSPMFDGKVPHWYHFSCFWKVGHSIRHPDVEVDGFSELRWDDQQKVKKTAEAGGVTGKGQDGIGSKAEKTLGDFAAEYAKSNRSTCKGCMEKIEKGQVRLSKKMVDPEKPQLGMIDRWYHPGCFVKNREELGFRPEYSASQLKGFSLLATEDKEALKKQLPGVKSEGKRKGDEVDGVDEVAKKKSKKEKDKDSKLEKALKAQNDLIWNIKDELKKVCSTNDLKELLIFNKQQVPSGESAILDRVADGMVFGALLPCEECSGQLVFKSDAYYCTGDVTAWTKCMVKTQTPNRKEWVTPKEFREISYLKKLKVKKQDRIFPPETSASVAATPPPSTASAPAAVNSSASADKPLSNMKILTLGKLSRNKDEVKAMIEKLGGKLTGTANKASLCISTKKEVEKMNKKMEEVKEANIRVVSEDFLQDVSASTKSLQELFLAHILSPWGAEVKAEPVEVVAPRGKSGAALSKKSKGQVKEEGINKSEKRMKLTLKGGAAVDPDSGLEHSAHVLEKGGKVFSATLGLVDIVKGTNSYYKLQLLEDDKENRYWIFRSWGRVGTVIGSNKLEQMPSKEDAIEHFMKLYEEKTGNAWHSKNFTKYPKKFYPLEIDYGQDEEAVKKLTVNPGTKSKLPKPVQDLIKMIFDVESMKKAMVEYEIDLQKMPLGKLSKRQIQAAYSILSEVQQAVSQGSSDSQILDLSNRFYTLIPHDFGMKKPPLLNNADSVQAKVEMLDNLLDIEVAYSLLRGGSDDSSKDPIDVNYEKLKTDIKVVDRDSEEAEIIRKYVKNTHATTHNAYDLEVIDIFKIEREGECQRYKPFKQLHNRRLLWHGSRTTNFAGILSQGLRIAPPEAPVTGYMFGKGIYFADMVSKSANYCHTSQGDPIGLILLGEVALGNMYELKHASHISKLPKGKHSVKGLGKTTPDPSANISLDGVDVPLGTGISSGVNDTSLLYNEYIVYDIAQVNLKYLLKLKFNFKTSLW

[8] = target: proteins of HEK293T cells transiently overexpressing caspase-6 (Homo sapiens, UniProt P07814); conditions: Comp; protein EPRS P07814
Sequence of proteins of HEK293T cells transiently overexpressing caspase-6 (Homo sapiens, UniProt P07814) (P07814 whole entry): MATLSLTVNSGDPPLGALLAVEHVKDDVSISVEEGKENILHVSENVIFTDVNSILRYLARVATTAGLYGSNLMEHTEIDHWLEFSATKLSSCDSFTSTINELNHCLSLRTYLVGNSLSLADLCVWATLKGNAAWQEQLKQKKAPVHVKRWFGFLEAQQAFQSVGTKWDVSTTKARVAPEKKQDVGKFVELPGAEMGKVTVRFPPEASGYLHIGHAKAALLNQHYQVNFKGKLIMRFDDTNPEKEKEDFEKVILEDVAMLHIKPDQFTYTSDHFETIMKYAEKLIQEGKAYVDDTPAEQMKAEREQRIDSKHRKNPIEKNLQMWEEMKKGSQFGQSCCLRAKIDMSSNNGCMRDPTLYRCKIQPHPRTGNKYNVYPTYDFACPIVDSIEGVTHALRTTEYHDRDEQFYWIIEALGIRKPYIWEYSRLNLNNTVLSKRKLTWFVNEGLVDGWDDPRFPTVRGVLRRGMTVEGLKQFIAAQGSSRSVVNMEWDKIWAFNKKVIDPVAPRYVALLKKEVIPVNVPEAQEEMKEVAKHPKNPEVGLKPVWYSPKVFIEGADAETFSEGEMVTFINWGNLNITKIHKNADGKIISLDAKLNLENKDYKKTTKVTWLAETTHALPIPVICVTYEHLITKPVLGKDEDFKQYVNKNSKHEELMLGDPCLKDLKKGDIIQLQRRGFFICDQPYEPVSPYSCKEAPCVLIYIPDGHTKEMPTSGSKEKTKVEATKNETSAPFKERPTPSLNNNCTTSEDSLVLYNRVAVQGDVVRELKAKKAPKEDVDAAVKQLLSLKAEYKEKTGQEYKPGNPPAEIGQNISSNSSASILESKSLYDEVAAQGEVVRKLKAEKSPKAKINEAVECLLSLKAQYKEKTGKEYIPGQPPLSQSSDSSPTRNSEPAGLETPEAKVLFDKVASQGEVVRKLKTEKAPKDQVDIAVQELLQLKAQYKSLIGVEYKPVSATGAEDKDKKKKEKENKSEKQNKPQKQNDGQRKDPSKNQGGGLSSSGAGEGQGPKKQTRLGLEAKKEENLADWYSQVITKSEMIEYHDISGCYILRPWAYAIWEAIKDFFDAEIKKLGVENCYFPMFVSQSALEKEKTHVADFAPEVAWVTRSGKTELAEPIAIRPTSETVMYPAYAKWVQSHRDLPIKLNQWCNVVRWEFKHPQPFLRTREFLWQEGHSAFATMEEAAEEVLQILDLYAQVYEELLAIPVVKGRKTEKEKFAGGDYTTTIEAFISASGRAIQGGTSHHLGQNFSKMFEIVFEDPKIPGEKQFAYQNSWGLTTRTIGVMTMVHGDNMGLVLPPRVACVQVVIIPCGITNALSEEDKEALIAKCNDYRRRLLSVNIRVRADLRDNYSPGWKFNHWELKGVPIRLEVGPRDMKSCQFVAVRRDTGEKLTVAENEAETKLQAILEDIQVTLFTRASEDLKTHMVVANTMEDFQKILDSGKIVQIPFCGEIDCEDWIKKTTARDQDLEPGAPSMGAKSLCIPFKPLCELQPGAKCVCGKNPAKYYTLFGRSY

[9] = target: proteins of HEK293T cells transiently overexpressing caspase-6 (Homo sapiens, UniProt P63104); conditions: Comp; protein YWHAZ P63104
Sequence of proteins of HEK293T cells transiently overexpressing caspase-6 (Homo sapiens, UniProt P63104) (P63104 whole entry): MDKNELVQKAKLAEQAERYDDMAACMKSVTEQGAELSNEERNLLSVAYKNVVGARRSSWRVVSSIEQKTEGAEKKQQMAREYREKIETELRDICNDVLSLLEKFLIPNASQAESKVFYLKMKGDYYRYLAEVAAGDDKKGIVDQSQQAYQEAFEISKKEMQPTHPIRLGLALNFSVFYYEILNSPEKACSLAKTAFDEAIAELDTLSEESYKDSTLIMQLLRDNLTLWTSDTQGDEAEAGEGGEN

[10] = target: proteins of HEK293T cells transiently overexpressing caspase-6 (Homo sapiens, UniProt P55884); conditions: Comp; protein EIF3B P55884
Sequence of proteins of HEK293T cells transiently overexpressing caspase-6 (Homo sapiens, UniProt P55884) (P55884 whole entry): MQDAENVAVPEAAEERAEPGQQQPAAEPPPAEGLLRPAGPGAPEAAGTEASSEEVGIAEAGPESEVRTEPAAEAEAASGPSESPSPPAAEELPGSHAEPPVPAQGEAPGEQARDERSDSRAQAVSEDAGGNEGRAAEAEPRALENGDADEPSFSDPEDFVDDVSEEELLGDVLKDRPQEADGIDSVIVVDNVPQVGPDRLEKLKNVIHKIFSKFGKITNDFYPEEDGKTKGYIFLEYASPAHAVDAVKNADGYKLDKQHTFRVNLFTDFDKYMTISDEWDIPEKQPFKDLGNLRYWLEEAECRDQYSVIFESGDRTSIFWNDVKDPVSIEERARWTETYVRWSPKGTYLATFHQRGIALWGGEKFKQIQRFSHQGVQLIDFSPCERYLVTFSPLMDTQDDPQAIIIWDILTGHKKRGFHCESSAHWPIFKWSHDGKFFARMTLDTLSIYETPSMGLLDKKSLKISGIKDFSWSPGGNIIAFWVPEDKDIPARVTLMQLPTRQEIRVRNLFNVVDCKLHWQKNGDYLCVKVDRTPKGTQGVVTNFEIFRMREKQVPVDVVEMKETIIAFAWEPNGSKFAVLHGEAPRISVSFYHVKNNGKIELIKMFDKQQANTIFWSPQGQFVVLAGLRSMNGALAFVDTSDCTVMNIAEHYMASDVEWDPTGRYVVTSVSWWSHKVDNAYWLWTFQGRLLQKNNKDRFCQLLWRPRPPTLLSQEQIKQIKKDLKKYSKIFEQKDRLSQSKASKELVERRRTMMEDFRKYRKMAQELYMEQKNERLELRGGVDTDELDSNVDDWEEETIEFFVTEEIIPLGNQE

[11] = target: proteins of HEK293T cells transiently overexpressing caspase-6 (Homo sapiens, UniProt P38919); conditions: Comp; protein EIF4A3 P38919
Sequence of proteins of HEK293T cells transiently overexpressing caspase-6 (Homo sapiens, UniProt P38919) (P38919 whole entry): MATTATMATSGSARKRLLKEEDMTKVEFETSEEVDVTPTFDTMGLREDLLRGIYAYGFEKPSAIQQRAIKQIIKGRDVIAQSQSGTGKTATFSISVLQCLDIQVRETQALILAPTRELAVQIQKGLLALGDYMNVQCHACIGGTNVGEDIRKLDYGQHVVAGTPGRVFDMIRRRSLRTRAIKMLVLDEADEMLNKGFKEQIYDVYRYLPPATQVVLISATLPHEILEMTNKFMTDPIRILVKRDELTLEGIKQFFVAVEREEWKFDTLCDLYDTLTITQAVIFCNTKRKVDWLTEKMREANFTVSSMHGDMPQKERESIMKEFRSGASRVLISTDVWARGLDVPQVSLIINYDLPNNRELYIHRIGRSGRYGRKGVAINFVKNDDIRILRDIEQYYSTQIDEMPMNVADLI

[12] = target: proteins of HEK293T cells transiently overexpressing caspase-6 (Homo sapiens, UniProt P61247); conditions: Comp; protein RPS3A P61247

C=CS(=O)(=O)N1C[C@H](C(=O)Nc2ccc(OC(F)(F)F)cc2)C[C@@H](c2ccccc2)C1 [3a]
enrich.exp.med [1]: 0.6349
enrich.exp.med [2]: 0.6156
enrich.exp.med [3]: 0.7926
enrich.exp.med [4]: 0.6137
enrich.exp.med [5]: 0.6753
enrich.exp.med [6]: 0.8298
enrich.exp.med [7]: 0.6484
enrich.exp.med [8]: 0.7098
enrich.exp.med [9]: 0.6236
enrich.exp.med [10]: 0.6413
enrich.exp.med [11]: 0.7351
enrich.exp.med [12]: 0.7684
